Laboratory results from ChEMBL document CHEMBL4825710, “Antibacterial activity of β-sitosterol isolated from the leaves of Odontonema strictum (Acanthaceae)” (2021).
Values after ≈ are worked out from the molar mass of the structure shown. Active and inactive are the calls of the source. No cut-off for these calls is given here.

Experiments:
[1] = tested on: Staphylococcus aureus; assay: Antibacterial activity against Staphylococcus aureus assessed as bacterial growth inhibition; type: functional
[2] = tested on: Shigella dysenteriae; assay: Antibacterial activity against Shigella dysenteriae assessed as bacterial growth inhibition at 12.5 ug/ml; type: functional, organism-based; conditions: dose 12.5 µg/ml
[3] = tested on: Candida albicans; assay: Antifungal activity against Candida albicans assessed as fungal growth inhibition at 12.5 ug/ml; type: functional, organism-based; conditions: dose 12.5 µg/ml
[4] = tested on: Pseudomonas aeruginosa; assay: Antibacterial activity against Pseudomonas aeruginosa assessed as bacterial growth inhibition at 12.5 ug/ml; type: functional, organism-based; conditions: dose 12.5 µg/ml
[5] = tested on: Salmonella typhi; assay: Antibacterial activity against Salmonella typhi assessed as bacterial growth inhibition at 12.5 ug/ml; type: functional, organism-based; conditions: Salmonella enterica subsp. enterica serovar Typhi; dose 12.5 µg/ml
[6] = tested on: Proteus vulgaris; assay: Antibacterial activity against Proteus vulgaris assessed as bacterial growth inhibition at 12.5 ug/ml; type: functional, organism-based; conditions: dose 12.5 µg/ml
[7] = tested on: Corynebacterium; assay: Antibacterial activity against Corynebacterium assessed as bacterial growth inhibition at 12.5 ug/ml; type: functional, organism-based; conditions: dose 12.5 µg/ml
[8] = tested on: Bacillus subtilis; assay: Antibacterial activity against Bacillus subtilis assessed as bacterial growth inhibition at 12.5 ug/ml; type: functional, organism-based; conditions: dose 12.5 µg/ml
[9] = tested on: Streptococcus pyogenes; assay: Antibacterial activity against Streptococcus pyogenes assessed as bacterial growth inhibition at 12.5 ug/ml; type: functional, organism-based; conditions: dose 12.5 µg/ml
[10] = tested on: Staphylococcus aureus; assay: Antibacterial activity against Staphylococcus aureus assessed as bacterial growth inhibition at 12.5 ug/ml; type: functional, organism-based; conditions: dose 12.5 µg/ml
[11] = tested on: Staphylococcus aureus; assay: Antibacterial activity against Staphylococcus aureus assessed as inhibition of bacterial growth measured after 24 hrs by serial dilution method; type: functional
[12] = tested on: Staphylococcus aureus; assay: Bactericidal activity against Staphylococcus aureus; type: functional
[13] = tested on: Streptococcus pyogenes; assay: Antibacterial activity against Streptococcus pyogenes assessed as bacterial growth inhibition; type: functional
[14] = tested on: Bacillus subtilis; assay: Antibacterial activity against Bacillus subtilis assessed as bacterial growth inhibition; type: functional
[15] = tested on: Corynebacterium ulcerans; assay: Antibacterial activity against Corynebacterium ulcerans assessed as bacterial growth inhibition; type: functional
[16] = tested on: Proteus vulgaris; assay: Antibacterial activity against Proteus vulgaris assessed as bacterial growth inhibition; type: functional
[17] = tested on: Pseudomonas aeruginosa; assay: Antibacterial activity against Pseudomonas aeruginosa assessed as bacterial growth inhibition; type: functional
[18] = tested on: Salmonella typhi; assay: Antibacterial activity against Salmonella typhi assessed as bacterial growth inhibition; type: functional, Salmonella enterica subsp. enterica serovar Typhi; conditions: Salmonella enterica
[19] = tested on: Shigella dysenteriae; assay: Antibacterial activity against Shigella dysenteriae assessed as bacterial growth inhibition; type: functional
[20] = tested on: Candida albicans; assay: Antifungal activity against Candida albicans assessed as fungal growth inhibition; type: functional

## CC[C@H](CC[C@@H](C)[C@H]1CC[C@H]2[C@@H]3CC=C4C[C@@H](O)CC[C@]4(C)[C@H]3CC[C@]12C)C(C)C [BETA-SITOSTEROL]
[1]
  MBC: 50 µg/mL (≈ 121 µM)
[2]
  growth inhibition (GI): Active
[3]
  growth inhibition (GI): Active
[4]
  growth inhibition (GI): Active
[5]
  growth inhibition (GI): Active
[6]
  growth inhibition (GI): Active
[7]
  growth inhibition (GI): Active
[8]
  growth inhibition (GI): Active
[9]
  growth inhibition (GI): Active
[10]
  growth inhibition (GI): Active
[11]
  MIC: 1240 µg/mL (≈ 2990 µM)
[12]
  MBC: 2210 µg/mL (≈ 5320 µM)
[13]
  MBC: 50 µg/mL (≈ 121 µM)
[14]
  MBC: 25 µg/mL (≈ 60.3 µM)
[15]
  MBC: 25 µg/mL (≈ 60.3 µM)
[16]
  MBC: 50 µg/mL (≈ 121 µM)
[17]
  MBC: 50 µg/mL (≈ 121 µM)
[18]
  MBC: 25 µg/mL (≈ 60.3 µM)
[19]
  MBC: 50 µg/mL (≈ 121 µM)
[20]
  MFC: 50 µg/mL (≈ 121 µM)
